Experimental data from patent US20150197492A1, “NOVEL INDENO[1,2-c]QUINOLIN-11-ONE DERIVATIVES, PREPARATION METHOD AND APPLICATION THEREOF” (National Defense Medical Center, priority 2014, published 2015).

Key:
Assay type in all cases: cell-based
[1] = tested on: HL-60 (TB); assay: cells; conditions: HL-60 (TB) (Leukemia), 10 μM, 48 hours
[2] = tested on: RPMI-8226; assay: cells; conditions: RPMI-8226 (Leukemia), 10 μM, 48 hours
[3] = tested on: A549/ATCC; assay: cells; conditions: A549/ATCC (Non-Small Cell Lung Cancer), 10 μM, 48 hours
[4] = tested on: HCC-2998; assay: cells; conditions: HCC-2998 (Colon Cancer), 10 μM, 48 hours
[5] = tested on: TK-10; assay: cells; conditions: TK-10 (Renal Cancer), 10 μM, 48 hours
[6] = tested on: COLO 205; assay: cells; conditions: COLO 205 (Colon Cancer), 10 μM, 48 hours
[7] = tested on: PC-3; assay: cells; conditions: PC-3 (Prostate Cancer), 10 μM, 48 hours
[8] = tested on: SNB-19; assay: cells; conditions: SNB-19 (CNS Cancer), 10 μM, 48 hours
[9] = tested on: IGROV1; assay: cells; conditions: IGROV1 (Ovarian Cancer), 10 μM, 48 hours
[10] = tested on: SR; assay: cells; conditions: SR (Leukemia), 10 μM, 48 hours
[11] = tested on: SF-539; assay: cells; conditions: SF-539 (CNS Cancer), 10 μM, 48 hours
[12] = tested on: SF-295; assay: cells; conditions: SF-295 (CNS Cancer), 10 μM, 48 hours
[13] = tested on: UACC-257; assay: cells; conditions: UACC-257 (Melanoma), 10 μM, 48 hours
[14] = tested on: ACHN; assay: cells; conditions: ACHN (Renal Cancer), 10 μM, 48 hours
[15] = tested on: 786-0; assay: cells; conditions: 786-0 (Renal Cancer), 10 μM, 48 hours
[16] = tested on: NCI-H522; assay: cells; conditions: NCI-H522 (Non-Small Cell Lung Cancer), 10 μM, 48 hours
[17] = tested on: LOX IMVI; assay: cells; conditions: LOX IMVI (Melanoma), 10 μM, 48 hours
[18] = tested on: SF-268; assay: cells; conditions: SF-268 (CNS Cancer), 10 μM, 48 hours
[19] = tested on: UACC-62; assay: cells; conditions: UACC-62 (Melanoma), 10 μM, 48 hours
[20] = tested on: SW-620; assay: cells; conditions: SW-620 (Colon Cancer), 10 μM, 48 hours
[21] = tested on: NCI-H23; assay: cells; conditions: NCI-H23 (Non-Small Cell Lung Cancer), 10 μM, 48 hours
[22] = tested on: CCRF-CEM; assay: cells; conditions: CCRF-CEM (Leukemia), 10 μM, 48 hours
[23] = tested on: 55 to 60 cancer cell lines; conditions: 10 μM, 48 hours; for Mean (mean growth percentage of the tested cancer cell lines): all tested cell lines
[24] = tested on: SK-MEL-5; assay: cells; conditions: SK-MEL-5 (Melanoma), 10 μM, 48 hours
[25] = tested on: DU-145; assay: cells; conditions: DU-145 (Prostate Cancer), 10 μM, 48 hours
[26] = tested on: CAKI-1; assay: cells; conditions: CAKI-1 (Renal Cancer), 10 μM, 48 hours
[27] = tested on: A498; assay: cells; conditions: A498 (Renal Cancer), 10 μM, 48 hours
[28] = tested on: NCI-H226; assay: cells; conditions: NCI-H226 (Non-Small Cell Lung Cancer), 10 μM, 48 hours
[29] = tested on: NCI-H322M; assay: cells; conditions: NCI-H322M (Non-Small Cell Lung Cancer), 10 μM, 48 hours
[30] = tested on: U251; assay: cells; conditions: U251 (CNS Cancer), 10 μM, 48 hours
[31] = tested on: K-562; assay: cells; conditions: K-562 (Leukemia), 10 μM, 48 hours
[32] = tested on: M14; assay: cells; conditions: M14 (Melanoma), 10 μM, 48 hours
[33] = tested on: MDA-MB-435; assay: cells; conditions: MDA-MB-435 (Melanoma), 10 μM, 48 hours
[34] = tested on: BT-549; assay: cells; conditions: BT-549 (Breast Cancer), 10 μM, 48 hours

Row | SMILES | growth percentage [1] [%] | growth percentage [2] [%] | growth percentage [3] [%] | growth percentage [4] [%] | growth percentage [5] [%] | growth percentage [6] [%] | growth percentage [7] [%] | growth percentage [8] [%] | growth percentage [9] [%] | growth percentage [10] [%] | growth percentage [11] [%] | growth percentage [12] [%] | growth percentage [13] [%] | growth percentage [14] [%] | growth percentage [15] [%] | growth percentage [16] [%] | growth percentage [17] [%] | growth percentage [18] [%] | growth percentage [19] [%] | growth percentage [20] [%] | also measured
1 | CNc1nc2ccccc2c2c1-c1ccc(Cl)cc1C2=O [SJ-1, 9-Chloro-6-(methylamino)-11H-indeno[1,2-c]quinolin-11-one] | 102.75 | 91.82 | 96.83 | 57.51 | 65.31 | 66.47 | 89.44 | 95.95 | 54.41 | 91.67 | 92.08 | 95.71 | 107.69 | 88.46 | 103.34 | 90.50 | 93.40 | 97.27 | 77.41 | 96.25 | growth percentage [21]: 86.83%; growth percentage [22]: 101.50%; inhibition effect in different cancer cell lines (summary of the NCI data, in words) [23]: more effective in breast cancer cell line; Mean (mean growth percentage of the tested cancer cell lines) [23]: 84.15%; growth percentage [24]: 80.96%; growth percentage [25]: 106.88%; growth percentage [26]: 73.84%; growth percentage [27]: 82.03%; growth percentage [28]: 92.19%; growth percentage [29]: 80.85%; growth percentage [30]: 96.03%; growth percentage [31]: 90.99%; growth percentage [32]: 112.68%; growth percentage [33]: 107.24%; growth percentage [34]: 101.88%
2 | CN(C)c1nc2ccccc2c2c1-c1ccc(Cl)cc1C2=O [SJ-2, 9-Chloro-6-(dimethylamino)-11H-indeno[1,2-c]quinolin-11-one] | 95.49 | 88.05 | 98.85 | 81.50 | 91.84 | 100.97 | 82.55 | 104.19 | 83.38 | 86.12 | 87.80 | 93.22 | 101.11 | 87.55 | 108.01 | 88.97 | 85.45 | 100.26 | 78.16 | 96.35 | growth percentage [21]: 82.62%; growth percentage [22]: 92.13%; inhibition effect in different cancer cell lines (summary of the NCI data, in words) [23]: more effective in breast cancer cell line; Mean (mean growth percentage of the tested cancer cell lines) [23]: 87.15%; growth percentage [24]: 94.89%; growth percentage [25]: 106.50%; growth percentage [26]: 84.65%; growth percentage [27]: 96.00%; growth percentage [28]: 84.79%; growth percentage [29]: 78.83%; growth percentage [30]: 98.98%; growth percentage [31]: 88.81%; growth percentage [32]: 113.63%; growth percentage [33]: 97.33%; growth percentage [34]: 102.55%
